Data published in patent US20260078454A1, “MULTIPLE ANTIBIOTIC BACTERIAL RESPONSE” (priority 2022, published 2026).

Tests used:
[1] = tested on: Acinetobacter baumannii; type: cell-based; settings: for differentially expressed transcripts in common between amikacin and gentamicin: 3.5 hours of exposure; for number of differentially expressed transcripts: pan-susceptible strain, MIC breakpoint, vs no-antibiotic control
Method: A pan-susceptible Acinetobacter baumannii was cultured and exposed to each of the nine conditions (including a no-antibiotic control) above as a single-exposure condition, meaning only one antibiotic per sample, no combination of drugs. Antibiotics were dosed at the resistance break point concentration (MIC breakpoint) for each compound according to the 2023 CLSI M100 guidelines. Antibiotic-treated and control cultures were maintained for 0.5 hours, 1.5 hours, 2.5 hours, and 3.5 hours and subsequently harvested to conduct RNA-seq, as discussed above in Example 3. Multiple replicates of this experimental set-up were performed to assess variance of the transcriptional response.
Cultures at the appropriate OD595 were transferred to a 37° C. incubator until the OD595 was between 0.9-1.4. The culture was distributed into individual treatment tubes containing antibiotics (or not for the control condition) and incubated at 37° C. for the specified exposure times (0.5, 1.5, 2.5, 3.5 hrs). At each timepoint, an aliquot of each of the treated and control culture conditions was removed and nucleic acid was extracted on the bioMérieux EMAG platform. […] The nucleic acid extracts were then treated with DNAse to remove all genomic DNA and extracted a second time, resulting in a pure RNA sample for each condition. These RNA samples were sent to the High-Throughput Genomics Core at the Huntsman Cancer Institute at the University of Utah for RNA-sequencing on the Illumina NovaSeq 6000 platform. A total of five biological replicates were made, which would result in 180 RNA-seq samples (36*5), although due to some instrument difficulties an actual total of 161 samples were sent to the sequencing core lab.
Differential expression analysis of RNA-seq read data is as follows. Read data was adapter and quality trimmed using bbduk (bbmap_38.86). Adapter and quality trimmed reads (fastq) were mapped to an Acinetobacter baumannii genome using Kallisto (Kallisto v0.48.0) to generate read counts for each annotated transcript in the genome. Read count data (all conditions) were normalized using Sleuth (0.30.1) and differential expression tests conducted between each independent antibiotic exposure condition and the no-antibiotic time matched control using the lrt test within Sleuth using a qvalue significance cutoff of 0.05 to determine differential expression. Lists of differentially expressed transcripts for each antibiotic and each timepoint were generated and aggregated according to the MOA classes (see prior) to determine if there was significant overlap in the transcriptional response to each MOA class of antibiotics.

[2] = tested on: Pseudomonas aeruginosa; assay: RNA-seq differential expression after single and combined antibiotic exposure; type: cell-based; settings: pan susceptible strain; CLSI resistance break point concentration; 60 minutes; regardless of whether the other two antibiotics were present
Method: RNA-sequencing (“RNA-seq”) was conducted using two strains of Pseudomonas aeruginosa: one a resistant strain and the second a pan susceptible strain. The strains were cultured to an optical density of 1.0, or approximately 1.5×10^9 genomic copies/mL (measured using digital PCR). The culture was then aliquoted into four independent culture tubes, three of which contained one single antibiotic and the fourth was a no-antibiotic control. Once mixed with antibiotics, where each antibiotic was dosed at its CLSI resistance break point concentration based upon 2021 guidance, the culture aliquots were returned to an incubator set to 37° C. using ambient air and agitated using orbital mixing for 60 minutes. […] Recovered reads were processed through an internal RNA-seq bioinformatics pipeline that includes the following steps: read quality and adapter trimming, surviving reads were assigned a genomic position in the reference P. aeruginosa genome PA01 using Kallisto (and read counts with dispersion estimates calculated), and differential expression analysis comparing each antibiotic treatment with the no-antibiotic control data set were conducted using Sleuth for each strain. […]

## NCC[C@H](O)C(=O)N[C@@H]1C[C@H](N)[C@@H](O[C@H]2O[C@H](CN)[C@@H](O)[C@H](O)[C@H]2O)[C@H](O)[C@H]1O[C@H]1O[C@H](CO)[C@@H](O)[C@H](N)[C@H]1O [amikacin]
[1]
  differentially expressed transcripts in common between amikacin and gentamicin: 93.2%
[1]; 0.5 hrs of exposure
  number of differentially expressed transcripts: 1825

## C[C@H]1COc2c(N3CCN(C)CC3)c(F)cc3c(=O)c(C(=O)O)cn1c23 [levofloxacin]
[1]; 0.5 hrs of exposure
  number of differentially expressed transcripts: 1394

## C[C@@H](O)[C@H]1C(=O)N2C(C(=O)O)=C(S[C@@H]3CN[C@H](C(=O)N(C)C)C3)[C@H](C)[C@H]12 [meropenem]
[2]
  regulation of antibiotic specific response transcripts: up regulation of five transcripts

## gentamicin
[2]
  regulation of antibiotic specific response transcripts: up regulation of eight transcripts
[1]; 0.5 hrs of exposure
  overlap of gentamicin response with amikacin response: fully contained within the amikacin response
  number of differentially expressed transcripts: 6
[1]
  differentially expressed transcripts in common between amikacin and gentamicin: 93.2%
